Values quoted from earlier work in US5032582A, “Method for treating fungal infections with amphotericin B/cholesterol sulfate composition” (Liposome Technology, Inc., priority 1989, dated 1991).

Details: in vivo

In the case of CC(C)CCC[C@@H](C)[C@H]1CC[C@H]2[C@@H]3CC=C4C[C@@H](OS(=O)(=O)[O-])CC[C@]4(C)[C@H]3CC[C@]12C.[Na+] [cholesterol sulfate, cholesterol 3-sulphate, sodium salt], the “toxicity” value is given as “no known toxicity”.
